Results reported in US9745289B2, “Aldosterone synthase inhibitors” (Boehringer Ingelheim International GmbH, priority 2014, dated 2017).

These molecules were tested against cortisol synthase (CYP11B1) (Macaca fascicularis, UniProt A0A2K5ULY1) (assay: Inhibition of Cortisol Synthesis). Details: cynomolgus adrenal gland mitochondria; 150 units of CYP11B1, 11-deoxycortisol as substrate, cortisol measured as product.
Format: biochemical, cynomolgus monkey
Protocol: The aldosterone synthase and cortisol synthase inhibition assays employ cynomolgus adrenal gland mitochondria as the source of aldosterone synthase (CYP11B2) and cortisol synthase (CYP11B1). […] Activity of CYP11B2 and CYP11B1 in these preparations is defined as the amount of enzyme that generates 1 pmol of product in one hour under the conditions described.
Assays are performed in 96-well format in a final volume of 60 μL/well, containing 100 mM potassium phosphate, pH 7.4, 1% (v/v) DMSO, and additionally, 2 μM of corticosterone and 50 units of CYP11B2 activity. Reactions are started by the addition of NADPH to 1 mM and allowed to proceed for 90 minutes at 37° C. Reactions are terminated by the addition of 60 μL of MeCN containing an internal standard for mass spectrometry. One hundred microliters are then transferred to a glass filter plate and centrifuged at 570×g for 5 minutes and the filtrate is collected. Reaction product aldosterone is quantified by mass spectrometry. To determine the assay blank value (0% activity), NADPH is omitted from some reactions.
Dose dependent inhibition is quantified by the inclusion of compound at various concentrations. Maximum activity (100%) is defined by reactions containing NADPH, but without compound.
Assays are performed as for aldosterone synthase except for the use of 150 units of CYP11B1, 11-deoxycortisol as substrate and cortisol measured as product.

SMILES	IC50 [µM]
CC(C)C(=O)N1CCC(Oc2cncc(C3COc4c(cccc4C(N)=O)O3)c2)CC1 (single isomer, unassigned) [Cpd 48A, 2-[5-(1-isobutyryl-piperidin-4-yloxy)-pyridin-3-yl]-2,3-dihydro-benzo[1,4]dioxine-5-carboxylic acid amide]	3.1
CS(=O)(=O)Cc1cncc(C2COc3c(cccc3C(N)=O)O2)c1 (single isomer, unassigned) [Cpd 8B, 2-(5-Methanesulfonylmethyl-pyridin-3-yl)-2,3-dihydro-benzo[1,4]dioxine-5-carboxylic acid amide]	13
NC(=O)c1cccc2c1OCC(c1cncc(C3(F)CCOCC3)c1)O2 (single isomer, unassigned) [Cpd 32B, 2-[5-(4-Fluoro-tetrahydro-pyran-4-yl)-pyridin-3-yl]-2,3-dihydro-benzo[1,4]dioxine-5-carboxylic acid amide]	0.35
NC(=O)c1cccc2c1OCC(c1cncc(CC(=O)N3CCC(F)(F)CC3)c1)O2 (single isomer, unassigned) [Cpd 30B, 2-{5-[2-(4,4-Difluoro-piperidin-1-yl)-2-oxo-ethyl]-pyridin-3-yl}-2,3-dihydro-benzo[1,4]dioxine-5-carboxylic acid amide]	24
CC(=O)N1CC(Oc2cncc(C3COc4c(cccc4C(N)=O)O3)c2)C1 (single isomer, unassigned) [Cpd 19B, 2-[5-(1-Acetyl-azetidin-3-yloxy)-pyridin-3-yl]-2,3-dihydro-benzo[1,4]dioxine-5-carboxylic acid amide]	24
NC(=O)c1cccc2c1OCC(c1cncc(C3CCOCC3)c1)O2 (single isomer, unassigned) [Cpd 10A, 2-[5-(Tetrahydro-pyran-4-yl)-pyridin-3-yl]-2,3-dihydro-benzo[1,4]dioxine-5-carboxylic acid amide]	3.4
NC(=O)c1cccc2c1OCC(c1cncc(O[C@@H]3CCOC3)c1)O2 (single isomer, unassigned) [Cpd 46B]	4.2
N#Cc1cccc2c1OCC(c1cncc(CN3CCCCS3(=O)=O)c1)O2 (single isomer, unassigned) [Cpd 41B, 2-[5-(1,1-Dioxo-1lambda6-[1,2]thiazinan-2-ylmethyl)-pyridin-3-yl]-2,3-dihydro-benzo[1,4]dioxine-5-carbonitrile]	3.9
CC(=O)N1CC[C@H](Oc2cncc(C3COc4c(cccc4C(N)=O)O3)c2)C1 (single isomer, unassigned) [Cpd 17B]	18
NC(=O)c1cccc2c1OCC(c1cncc(C3(O)CCCCC3)c1)O2 (single isomer, unassigned) [Cpd 11B, 2-[5-(1-Hydroxy-cyclohexyl)-pyridin-3-yl]-2,3-dihydro-benzo[1,4]dioxine-5-carboxylic acid amide]	4.4
CCOc1cncc(C2COc3c(cccc3C(N)=O)O2)c1 (single isomer, unassigned) [Cpd 45A, 2-(5-ethoxy-pyridin-3-yl)-2,3-dihydro-benzo[1,4]dioxine-5-carboxylic acid amide]	0.21
CN(C)C(=O)Cc1cncc(C2COc3c(cccc3C(N)=O)O2)c1 (single isomer, unassigned) [Cpd 29A, 2-[5-[2-(Dimethylamino)-2-oxo-ethyl]-3-pyridyl]-2,3-dihydro-1,4-benzodioxine-5-carboxamide]	22
NC(=O)c1cccc2c1OCC(c1cncc(CNC(=O)C3CC3)c1)O2 (single isomer, unassigned) [Cpd 14B, 2-{5-[(Cyclopropanecarbonyl-amino)-methyl]-pyridin-3-yl}-2,3-dihydro-benzo[1,4]dioxine-5-carboxylic acid amide.]	> 30
N#Cc1cccc2c1OCC(c1cncc(CNC(=O)C3CC3)c1)O2 (single isomer, unassigned) [Cpd 39A, Cyclopropanecarboxylic acid [5-(5-cyano-2,3-dihydro-benzo[1,4]dioxin-2-yl)-pyridin-3-ylmethyl]-amide]	7.3
CC(=O)N1CC[C@H](Oc2cncc(C3COc4c(cccc4C(N)=O)O3)c2)C1 (single isomer, unassigned) [Cpd 17A]	> 30
NC(=O)c1cccc2c1OCC(c1cncc(C(F)F)c1)O2 (single isomer, unassigned) [Cpd 22B, 2-(5-Difluoromethyl-pyridin-3-yl)-2,3-dihydro-benzo[1,4]dioxlne-5-carboxylic acid amide]	2.3
CN1C(=O)CCC1c1cncc(C2COc3c(C#N)cccc3O2)c1 (single isomer, unassigned) [Cpd 35B, 2-[5-(1-Methyl-5-oxo-pyrrolidin-2-yl)-pyridin-3-yl]-2,3-dihydro-benzo[1,4] dioxine-5-carbonitrile]	6.2

SMILES	IC50 [µM]
CN1C(=O)CCC1c1cncc(C2COc3c(cccc3C(N)=O)O2)c1 (single isomer, unassigned) [Cpd 6BB, 2-[5-(-1-Methyl-5-oxo-pyrrolidin-2-yl)-pyridin-3-yl]-2,3-dihydro-benzo[1,4]dioxine-5-carboxylic acid amide]	> 30
NC(=O)c1cccc2c1OCC(c1cncc(CN3CCCC3=O)c1)O2 (single isomer, unassigned) [Cpd 5A, 2-[5-(2-Oxo-pyrrolidin-1-ylmethyl)-pyridin-3-yl]-2,3-dihydro-benzo[1,4]dioxine-5-carboxylic acid amide]	> 30
CS(=N)(=O)Cc1cncc(C2COc3c(C#N)cccc3O2)c1 (single isomer, unassigned) [Cpd 62AB, 2-(5-{[imino(methyl)oxo-λ^6-sulfanyl]methyl}pyridin-3-yl)-2,3-dihydro-1,4-benzodioxine-5-carbonitrile]	> 30
Cc1c(C#N)cncc1C1COc2c(cccc2C(N)=O)O1 (single isomer, unassigned) [Cpd 61B, 2-(5-cyano-4-methyl-pyridin-3-yl)-2,3-dihydro-benzo[1,4]dioxine-5-carboxylic acid amide]	22
NC(=O)c1cccc2c1OCC(c1cncc(OC3CCOCC3)c1)O2 (single isomer, unassigned) [Cpd 47B, 2-[5-(Tetrahydro-pyran-4-yloxy)-pyridin-3-yl]-2,3-dihydro-benzo[1,4]dioxine-5-carboxylic acid amide]	1.2
NC(=O)c1cccc2c1OCC(c1cncc3c1CCC3O)O2 (single isomer, unassigned) [Cpd 52AA, 2-(7-Hydroxy-6,7-dihydro-5H-[2]pyrindin-4-yl)-2,3-dihydro-benzo[1,4]dioxine-5-carboxylic acid amide]	4.1
CNC(=O)c1cccc2c1OCC(c1cncc(C(F)(F)F)c1)O2 (single isomer, unassigned) [Cpd 28B, 2-(5-Trifluoromethyl-pyridin-3-yl)-2,3-dihydro-benzo[1,4]dioxine-5-carboxylic acid methylamide]	6.1
NC(=O)c1cccc2c1OCC(c1cncc3c1CCC3O)O2 (single isomer, unassigned) [Cpd 52BA, 2-(7-Hydroxy-6,7-dihydro-5H-[2]pyrindin-4-yl)-2,3-dihydro-benzo[1,4]dioxine-5-carboxylic acid amide]	16
CS(=O)(=O)Cc1cncc(C2COc3c(cccc3C(N)=O)O2)c1 (single isomer, unassigned) [Cpd 8A, 2-(5-Methanesulfonylmethyl-pyridin-3-yl)-2,3-dihydro-benzo[1,4]dioxine-5-carboxylic acid amide]	> 30
NC(=O)c1cccc2c1OCC(c1cncc(C3(O)CCOCC3)c1)O2 (single isomer, unassigned) [Cpd 1B, 2-[5-(4-Hydroxy-tetrahydro-pyran-4-yl)-pyridin-3-yl]-2,3-dihydro-benzo[1,4]dioxine-5-carboxylic acid amide]	24
NC(=O)c1cccc2c1OCC(c1cncc(F)c1)O2 (single isomer, unassigned) [Cpd 51B, 2-(5-Fluoro-pyridin-3-yl)-2,3-dihydro-benzo[1,4]dioxine-5-carboxylic acid amide]	20
CC(=O)N1CC[C@@H](Oc2cncc(C3COc4c(cccc4C(N)=O)O3)c2)C1 (single isomer, unassigned) [Cpd 18A]	16
NC(=O)c1cccc2c1OCC(c1cncc(C3(F)CCOCC3)c1)O2 (single isomer, unassigned) [Cpd 32A, 2-[5-(4-Fluoro-tetrahydro-pyran-4-yl)-pyridin-3-yl]-2,3-dihydro-benzo[1,4]dioxine-5-carboxylic acid amide]	6
NC(=O)c1cccc2c1OCC(c1cncc(CN3CCOCC3=O)c1)O2 (single isomer, unassigned) [Cpd 15B, 2-[5-(3-Oxo-morpholin-4-ylmethyl)-pyridin-3-yl]-2,3-dihydro-benzo[1,4]dioxine-5-carboxylic acid amide]	> 30
NC(=O)c1cccc2c1OCC(c1cncc(CO)c1)O2 (single isomer, unassigned) [Cpd 20A, 2-(5-Hydroxymethyl-pyridin-3-yl)-2,3-dihydro-benzo[1,4]dioxine-5-carboxylic acid amide]	8.2
C[C@@H](O)c1c(F)cncc1C1COc2c(cccc2C(N)=O)O1 (single isomer, unassigned) [Cpd 57B]	15
NC(=O)c1cccc2c1OCC(c1cccnc1)O2 (single isomer, unassigned) [Cpd 4A, 2-Pyridin-3-yl-2,3-dihydro-benzo[1,4]dioxine-5-carboxylic acid amide]	3.1
